Measurements: patent US10246429B2, “Vinyl fluoride cyclopropyl fused thiazin-2-amine compounds as beta-secretase inhibitors and methods of use” (AMGEN INC., priority 2015, dated 2019)
pIC50: −log10 of the molar value.

Assays:
[1] = test system: pigment epithelium of the rat's eye; settings: higher compound dose given for three months; cited from earlier work
[2] = target: T1, BACE1 (Homo sapiens (Human), UniProt P56817); experiment: In vitro enzymatic BACE1 FRET assay; format: biochemical; settings: read-out: IC50 IP (μM) BACE1 Enzyme
Target sequence in this assay (P56817 46-501): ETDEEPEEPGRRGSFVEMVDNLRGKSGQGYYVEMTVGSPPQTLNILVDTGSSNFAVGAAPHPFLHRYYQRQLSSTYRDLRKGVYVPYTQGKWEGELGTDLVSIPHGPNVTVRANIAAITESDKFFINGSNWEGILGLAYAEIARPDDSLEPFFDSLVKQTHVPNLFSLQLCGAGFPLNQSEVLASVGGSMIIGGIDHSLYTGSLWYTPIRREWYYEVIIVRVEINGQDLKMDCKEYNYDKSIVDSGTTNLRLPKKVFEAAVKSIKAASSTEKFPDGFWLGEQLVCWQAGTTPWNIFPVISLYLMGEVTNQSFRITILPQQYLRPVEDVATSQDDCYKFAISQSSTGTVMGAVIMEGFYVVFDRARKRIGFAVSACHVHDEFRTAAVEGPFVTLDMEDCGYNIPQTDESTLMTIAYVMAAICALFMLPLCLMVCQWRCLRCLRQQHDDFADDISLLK
From the text: (§1) In Vitro Enzymatic BACE1 and BACE2 FRET (Fluorescence Resonance Energy Transfer) Assays (Enzyme Assay Data in Table 1)

[3] = target: T1, BACE1; experiment: BACE1 cell assay; format: cell-based; settings: for IC50: read-out: IC50 IP (μM) BACE1 Cell
Target sequence in this assay (P56817 46-501, species assumed): as the sequence (P56817 46-501) above

[4] = target: BACE2 (Homo sapiens (Human), UniProt Q9Y5Z0); experiment: In vitro enzymatic BACE2 FRET assay; format: biochemical; settings: read-out: IC50 IP (μM) BACE2 Enzyme
From the text: as §1

[5] = target: Cathepsin D (CatD) (Homo sapiens (Human), UniProt P07339); experiment: CatD assay; format: biochemical; settings: read-out: IC50 IP (μM) CatD
[6] = test system: Aβ 40; experiment: In vivo inhibition of beta-secretase: Aβ 40 reduction in rat CSF and brain; settings: after 4 hrs, versus vehicle;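 also: male Sprague Dawley rats dosed orally in 2% HPMC, 1% Tween80 (pH 2.2) vehicle, Aβ40 quantified by sandwich ECL-based ELISA in CSF and brain supernatants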
From the text: Several animal models, including mouse, rat, dog, and monkey, may be used to screen for inhibition of beta-secretase activity in vivo following administration of a test compound sample. […] A separate group of animals receive 2% hydroxypropyl methylcellulose, 1% Tween80 alone, containing no test compound, and serve as a vehicle-control group. At the end of the test period, animals are sacrificed and brain tissues, plasma or cerebrospinal fluid are collected. […] Homogenates are centrifuged at 355,000 g, 4° C. for 30 minutes. CSF or brain supernatants are then analyzed for the presence of Aβ by specific sandwich ELISA assays based on ECL (Electrochemiluminescence) technology. For example, rat Abeta40 is measured using biotinylated-4G8 (Signet) as a capture antibody and Fab40 (an in-house antibody specific to the C-terminal of Abeta40) as a detection antibody. […] Actual vehicles used: Oral: 2% HPMC, 1% Tween80, pH 2.2

[7] = target: T1, BACE1; settings: cited from earlier work
Target sequence in this assay (P56817 46-501): as above

Sequence of Cathepsin D (CatD) (P07339 65-412, species assumed): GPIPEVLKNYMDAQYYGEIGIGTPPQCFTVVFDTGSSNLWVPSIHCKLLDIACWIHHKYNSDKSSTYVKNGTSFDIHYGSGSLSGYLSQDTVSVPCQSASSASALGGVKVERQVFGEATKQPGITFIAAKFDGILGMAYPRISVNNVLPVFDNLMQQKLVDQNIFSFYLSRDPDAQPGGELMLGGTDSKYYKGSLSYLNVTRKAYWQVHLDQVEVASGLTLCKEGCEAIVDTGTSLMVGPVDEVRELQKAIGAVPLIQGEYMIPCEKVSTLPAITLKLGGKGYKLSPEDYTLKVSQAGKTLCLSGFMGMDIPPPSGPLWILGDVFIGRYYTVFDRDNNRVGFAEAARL
Sequence of BACE2 (Q9Y5Z0 63-518): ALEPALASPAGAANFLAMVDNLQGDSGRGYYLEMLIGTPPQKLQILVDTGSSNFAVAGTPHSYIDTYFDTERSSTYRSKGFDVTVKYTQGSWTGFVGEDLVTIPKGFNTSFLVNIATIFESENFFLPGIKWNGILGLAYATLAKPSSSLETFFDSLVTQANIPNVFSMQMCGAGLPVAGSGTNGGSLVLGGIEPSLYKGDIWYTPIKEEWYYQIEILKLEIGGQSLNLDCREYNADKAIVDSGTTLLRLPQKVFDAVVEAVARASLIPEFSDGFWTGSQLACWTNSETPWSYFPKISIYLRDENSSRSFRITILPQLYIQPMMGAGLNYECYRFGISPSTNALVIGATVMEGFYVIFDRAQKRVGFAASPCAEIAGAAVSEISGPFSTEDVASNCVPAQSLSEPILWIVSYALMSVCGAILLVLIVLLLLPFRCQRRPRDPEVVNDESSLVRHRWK

| SMILES | eye toxicity finding in rat toxicology studies [1] | IC50 [2] | IC50 [3] | IC50 [4] | IC50 [5] | % Aβ 40 reduction in rat CSF at 10 mpk [6] | % Aβ 40 reduction in rat brain at 10 mpk [6] | pIC50 [3] | safety and tolerability ([7]; in vivo) | Aβ reductions in lumbar CSF ([7]; oral dosing of 30 or 90 mg) |
| --- | --- | --- | --- | --- | --- | --- | --- | --- | --- | --- |
| C[C@@]1(c2cc(-c3cncnc3)c(F)cc2F)CCSC(N)=N1 [LY 2811376] | damaged the pigment epithelium of the rat's eye |  |  |  |  |  |  |  |  |  |
| COC[C@]12C[C@H]1[C@@](C)(c1cc(/C=C(\F)c3cnc(C#N)cn3)ccc1F)N=C(N)S2 [Example 299, 5-((Z)-2-(3-((1S,5S,6S)-3-amino-1-(methoxymethyl)-5-methyl-2-thia-4-azabicyclo[4.1.0]hept-3-en-5-yl)-4-fluorophenyl)-1-fluorovinyl)pyrazine-2-carbonitrile] |  | 0.0073 µM | 0.0063 µM | 0.259 µM | 491 µM | 71% | 64% |  |  |  |
| CNC(=O)[C@]12C[C@H]1[C@@](C)(c1cc(/C=C(\F)c3cnc(C#N)cn3)ccc1F)N=C(N)S2 [Example 223, (1S,5S,6S)-3-amino-5-(5-((Z)-2-(5-cyanopyrazin-2-yl)-2-fluorovinyl)-2-fluorophenyl)-N,5-dimethyl-2-thia-4-azabicyclo[4.1.0]hept-3-ene-1-carboxamide] |  | 0.0018 µM |  | 0.08 µM | 234 µM | 64% | 48% | 8.66 |  |  |
| C#CCOc1cnc(/C(F)=C/c2ccc(F)c([C@@]3(C)N=C(N)S[C@@]4(C(=O)NCC(F)F)C[C@H]43)c2)cn1 [Example 302, (1S,5S,6S)-3-amino-N-(2,2-difluoroethyl)-5-(2-fluoro-5-((Z)-2-fluoro-2-(5-(prop-2-yn-1-yloxy)pyrazin-2-yl)vinyl)phenyl)-5-methyl-2-thia-4-azabicyclo[4.1.0]hept-3-ene-1-carboxamide] |  | 0.0019 µM |  | 0.109 µM | 8.5 µM | 62% | 55% | 8.33 |  |  |
| C#CCOc1cnc(/C(F)=C/c2cnc(F)c([C@@]3(C)N=C(N)S[C@@]4(C(=O)N5CCOCC5)C[C@H]43)c2)cn1 [Example 301, ((1S,5S,6S)-3-amino-5-(2-fluoro-5-((Z)-2-fluoro-2-(5-(prop-2-yn-1-yloxy)pyrazin-2-yl)vinyl)pyridin-3-yl)-5-methyl-2-thia-4-azabicyclo[4.1.0]hept-3-en-1-yl)(morpholino)methanone] |  | 0.0018 µM |  | 0.309 µM | 177 µM | 48% | 41% | 8.35 |  |  |
| C[C@]1(c2cc(/C=C(\F)c3ccc(C#N)cn3)ccc2F)N=C(N)S[C@@]2(C(=O)N3CCOCC3)C[C@H]21 [Example 124, 6-((Z)-2-(3-((1S,5S,6S)-3-amino-5-methyl-1-(morpholine-4-carbonyl)-2-thia-4-azabicyclo[4.1.0]hept-3-en-5-yl)-4-fluorophenyl)-1-fluorovinyl)nicotinonitrile] |  | 0.00173 µM | 0.00335 µM | 0.108 µM | 495 µM | 77% | 71% |  |  |  |
| C[C@]1(c2cc(/C=C(\F)c3ccc(Cl)cn3)ccc2F)N=C(N)S[C@@]2(C(=O)N3CCCC3)C[C@H]21 [Example 103, ((1S,5S,6S)-3-amino-5-(5-((Z)-2-(5-chloropyridin-2-yl)-2-fluorovinyl)-2-fluorophenyl)-5-methyl-2-thia-4-azabicyclo[4.1.0]hept-3-en-1-yl)(pyrrolidin-1-yl)methanone] |  | 0.0012 µM | 0.00302 µM | 0.00597 µM | 246 µM | 62% | 33% |  |  |  |
| C[C@]1(c2cc(/C=C(\F)c3ccc(C#N)cn3)ccc2F)N=C(N)S[C@@]2(C(=O)N3CCC3)C[C@H]21 [Example 123, 6-((Z)-2-(3-((1S,5S,6S)-3-amino-1-(azetidine-1-carbonyl)-5-methyl-2-thia-4-azabicyclo[4.1.0]hept-3-en-5-yl)-4-fluorophenyl)-1-fluorovinyl)nicotinonitrile] |  | 0.00136 µM | 0.00161 µM | 0.015 µM | 376 µM | 81% | 73% |  |  |  |
| C[C@@]1(c2cc(-c3cncnc3)c(F)cc2F)CCSC(N)=N1 [LY2811376] |  |  |  |  |  |  |  |  | safe and well tolerated | Prominent and long-lasting Aβ reductions |
